Reference: PubChem BioAssay (NCI)
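Results reflect a 48-hour exposure of cells in 96-well plates to compound at five concentrations. Abbreviation: GI50, concentration required for 50% inhibition of growth. Definition used: TGI = concentration required for complete inhibition of growth.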

What was measured:
Assay in all cases: DTP human tumour cell line panel, 48 h
A498 renal = system: A498 renal
SNB-75 CNS = system: SNB-75 CNS
HOP-62 NSCLC = system: HOP-62 NSCLC
NCI/ADR-RES ovarian = system: NCI/ADR-RES ovarian
A549 NSCLC = system: A549 NSCLC
NCI-H460 lung = system: NCI-H460 lung
DU-145 prostate = system: DU-145 prostate
U251 CNS = system: U251 CNS
SK-MEL-28 melanoma = system: SK-MEL-28 melanoma
MDA-MB-231 breast = system: MDA-MB-231 breast

SMILES | GI50 (A498 renal) | TGI (A498 renal) | GI50 (SNB-75 CNS) | TGI (SNB-75 CNS) | GI50 (HOP-62 NSCLC) | TGI (HOP-62 NSCLC) | GI50 (NCI/ADR-RES ovarian) | TGI (NCI/ADR-RES ovarian) | GI50 (A549 NSCLC) | TGI (A549 NSCLC) | GI50 (NCI-H460 lung) | TGI (NCI-H460 lung) | GI50 (DU-145 prostate) | TGI (DU-145 prostate) | GI50 (U251 CNS) | TGI (U251 CNS) | GI50 (SK-MEL-28 melanoma) | TGI (SK-MEL-28 melanoma) | GI50 (MDA-MB-231 breast) | TGI (MDA-MB-231 breast)
COc1cccc2c1nc(C(F)F)n2-c1nc(-c2ccc(NS(=O)(=O)CCN(C)C)cc2)nc(N2CCOCC2)n1 | 0.0337 µM | 0.279 µM | 0.0246 µM | 0.282 µM | 0.123 µM | 6.56 µM | 0.434 µM | 33.6 µM | 0.174 µM | 4.33 µM | 0.0883 µM | 1.33 µM | 0.162 µM | 11.7 µM | 0.454 µM | 5.09 µM | 0.0774 µM | 2.5 µM | 0.617 µM | 37.2 µM
O=c1[nH]c2ccccc2n1C1CCNCC1 | 24.4 µM | > 100 µM | > 100 µM | > 100 µM | > 100 µM | > 100 µM | > 100 µM | > 100 µM | > 100 µM | > 100 µM | > 100 µM | > 100 µM | > 100 µM | > 100 µM | > 100 µM | > 100 µM | > 100 µM | > 100 µM | > 100 µM | > 100 µM
C[N+]1([O-])C2CCC1CC(OC(=O)C(CO)c1ccccc1)C2 (centres undefined) |  | > 100 µM |  | > 100 µM |  | > 100 µM |  | > 100 µM |  | > 100 µM |  | > 100 µM |  | > 100 µM |  | > 100 µM |  | > 100 µM |  | > 100 µM
CC(=O)OCC1C(=O)OCC1C(=O)N1Cc2cc3ccccc3nc2C1 (centres undefined) |  | 16.4 µM |  | 14.9 µM |  | 32.7 µM |  | 7.56 µM |  | 30.6 µM |  | 28.8 µM |  | 14 µM |  | 24.9 µM |  | 7.07 µM |  | 19.9 µM
Cc1ccc(N)c(S)c1 |  | 38.6 µM |  | 40.5 µM |  | 44.4 µM |  | 56.8 µM |  | 40.6 µM |  | 49.9 µM |  | 29.1 µM |  | 28.5 µM |  | 47.6 µM |  | 31.3 µM
O=C(CCCc1ccc(N(CCCl)CCCl)cc1)NCc1ccccc1 | 2.59 µM | 20.8 µM | 3.49 µM | 33 µM | 8 µM | 40.5 µM | 6.88 µM | 60.7 µM | 6.88 µM | > 100 µM | 2.81 µM | 59.4 µM | 5.04 µM | 56.6 µM | 6.6 µM | 43.4 µM | 17.2 µM | > 100 µM | 21.3 µM | > 100 µM
CCN1CCN(CCC(=O)Nc2cccc(-n3cc(-c4ccncc4)c(-c4ccc(Cl)c(OC)c4)n3)c2)CC1 | 0.676 µM | 2.74 µM | 0.392 µM | 6.82 µM | 0.697 µM | 2.43 µM | 1.27 µM | 4.29 µM | 0.593 µM | 2.29 µM | 0.361 µM | 1.37 µM | 0.432 µM | 5.96 µM | 0.484 µM | 1.76 µM | 1.39 µM | 2.97 µM | 1.21 µM | 2.92 µM
Sc1cccc2cccnc12 | 2.45 µM | 8.8 µM | 2.72 µM | 11.6 µM | 1.11 µM | 12.3 µM | 0.955 µM | 9.21 µM | 0.497 µM | 11.5 µM | 0.389 µM | 6.23 µM | 0.626 µM | 15.9 µM | 0.598 µM | 13.9 µM | 1.15 µM | 16.2 µM | 1.36 µM | 14.7 µM
COC(=O)[C@@H](C)C[C@H](Cc1ccccc1)NC(=O)c1nc([C@@H](C[C@H](C(C)C)N(C)C(=O)[C@@H](NC(=O)[C@H]2C[C@H](O)CCN2C)C(C)C)OC(C)=O)sc1C(C)C | 0.00752 µM | 0.0881 µM | 0.00462 µM | 3.85 µM | 0.0315 µM | > 11.1 µM | 2.29 µM | > 11.1 µM | 0.0519 µM | > 11.1 µM | 0.0076 µM | > 11.1 µM | 0.00395 µM |  | 0.0075 µM | > 11.1 µM | 0.0191 µM | > 11.1 µM | 0.0067 µM | 0.458 µM
O=C1NC(=O)C(c2c[nH]c3ccccc23)=C1c1c[nH]c2ccccc12 | 3.34 µM | > 25 µM | 4.11 µM | > 25 µM | 16.5 µM | > 25 µM | 12.8 µM | > 25 µM | 10.7 µM | > 25 µM | 10.6 µM | > 25 µM | > 21.2 µM | > 25 µM | 10.2 µM | > 25 µM | 15.1 µM | > 25 µM | 12.6 µM | > 25 µM
CC(C)(C)CC(C)(C)c1ccc(OCCO)cc1 | 0.0423 µg/mL | 14.2 µg/mL | 3.45 µg/mL | 18.1 µg/mL | 3.75 µg/mL | 16.3 µg/mL | 2.61 µg/mL | 18.1 µg/mL | 9.04 µg/mL | > 75 µg/mL | 2.95 µg/mL | 16.4 µg/mL | 9.51 µg/mL | 20.6 µg/mL | 5.34 µg/mL | 19.6 µg/mL | 11.4 µg/mL | 29.7 µg/mL | 4.43 µg/mL | 15.7 µg/mL
CC(C)=CC[C@@H]1CC2(CC=C(C)C)C(=O)C(OC3(C(=O)c4ccccc4)C(=O)C4(CC=C(C)C)C[C@@H](CC=C(C)C)C(C)(C)C(CC=C(C)C)(C4=O)C3=O)(C(=O)c3ccccc3)C(=O)C(CC=C(C)C)(C2=O)C1(C)C (some centres undefined) | 1.01 µM | 2.09 µM | 1.11 µM | 5.62 µM | 1.36 µM | 4 µM | 1.6 µM | 5.67 µM | 1.73 µM | 6.05 µM | 1.27 µM | 3.07 µM | 1.35 µM | 3.88 µM | 1.64 µM | 5.34 µM | 1.18 µM | 3.25 µM | 1.49 µM | 4.12 µM
O=C(NCc1cn(Cc2cccc(Oc3ccccc3)c2)nn1)c1cccnc1Nc1ccc(F)cc1 | 13.7 µM | 95.1 µM | 3.81 µM | 21.3 µM | 6.02 µM | 32.5 µM | 14 µM | > 100 µM | 6.11 µM | > 100 µM | 5.25 µM | > 100 µM | 8.58 µM | > 100 µM | 7.12 µM | > 100 µM | 7.98 µM | > 100 µM | 14.5 µM | > 100 µM
